Article PMC8246065 (The EMBO Journal, 2021)
Read-outs that look alike come from different tables or passages of the source.

How the values were obtained:
NOD2 = NOD2 (Homo sapiens, UniProt Q9HC29); assay: Microscale thermophoresis (MST) binding to purified NOD2-GFP
Procedure: The lysates were incubated with 2 ml GFP‐Trap agarose at 4°C for 4 h. The agarose was collected with Poly‐Prep columns by gravity flow. […] To remove heat shock proteins, columns were further washed with 50 ml wash buffer III (50 mM Tris–HCl, pH 7.5, 150 mM NaCl, 5 mM MgCl2+, 1 mM ATP). To elute the proteins, the agarose was mixed with 2 ml elution buffer (100 mM Glycine, pH 2.5) for 1 min and the eluted proteins were immediately neutralized with 0.2 ml of 1 M Tris, pH 10.5.

NOD1 H517A = target: T1, NOD1 H517A (Homo sapiens, UniProt Q9Y239, H517A); assay: MST binding to purified NOD1 H517A-GFP
T1 construct: made in house
T1 sequence (Q9Y239 1-953 H517A): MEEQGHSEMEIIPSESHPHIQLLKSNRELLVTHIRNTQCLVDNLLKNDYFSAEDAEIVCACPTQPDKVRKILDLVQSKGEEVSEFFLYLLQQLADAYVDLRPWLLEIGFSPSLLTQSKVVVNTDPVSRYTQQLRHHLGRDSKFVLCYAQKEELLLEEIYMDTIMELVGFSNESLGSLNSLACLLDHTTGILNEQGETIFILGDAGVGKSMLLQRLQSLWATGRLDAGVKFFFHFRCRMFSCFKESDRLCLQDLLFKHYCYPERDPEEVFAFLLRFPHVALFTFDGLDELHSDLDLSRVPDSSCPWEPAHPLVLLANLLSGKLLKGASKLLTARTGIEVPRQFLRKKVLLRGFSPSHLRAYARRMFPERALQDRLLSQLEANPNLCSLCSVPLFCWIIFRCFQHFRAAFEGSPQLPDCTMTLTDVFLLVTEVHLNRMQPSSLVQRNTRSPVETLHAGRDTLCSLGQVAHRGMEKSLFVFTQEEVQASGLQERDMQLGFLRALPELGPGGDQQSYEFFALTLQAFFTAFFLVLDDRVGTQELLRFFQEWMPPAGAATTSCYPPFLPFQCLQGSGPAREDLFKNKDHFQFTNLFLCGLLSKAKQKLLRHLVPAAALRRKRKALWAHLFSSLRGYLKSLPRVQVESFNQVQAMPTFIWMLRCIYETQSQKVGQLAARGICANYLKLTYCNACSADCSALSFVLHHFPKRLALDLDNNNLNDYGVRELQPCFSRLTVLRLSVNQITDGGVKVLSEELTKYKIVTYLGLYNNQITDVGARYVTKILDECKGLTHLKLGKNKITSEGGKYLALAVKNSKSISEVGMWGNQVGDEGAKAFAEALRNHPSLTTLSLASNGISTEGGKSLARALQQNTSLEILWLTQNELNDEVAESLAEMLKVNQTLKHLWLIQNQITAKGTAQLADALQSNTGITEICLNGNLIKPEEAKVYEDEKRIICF
Procedure: The mutagenesis was performed with Q5® site‐directed mutagenesis kit (E0554, NEB) according to the manufacturer's instructions. The primers used in this study were as follows: NOD1 E157A F: 5′‐[…]gcg[…]‐3′, NOD1 E157A R: 5′‐[…]‐3′, NOD1 D161A F: 5′‐[…]gcg[…]‐3′, NOD1 D161A R: 5′‐[…]‐3′, NOD1 D203A F: 5′‐[…]gcg[…]‐3′, D203A R: 5′‐[…]‐3′, L218A F: 5′‐[…]gcg[…]‐3′, L218A R: 5′‐[…]‐3′, R237A F: 5′‐[…]gcg[…]‐3′, R237A R: 5′‐[…]‐3′, H257A F: 5′‐[…]gcg[…]‐3′, H257A R: 5′‐[…]‐3′, E267A F: 5′‐[…]gcg[…]‐3′, E267A R: 5′‐[…]‐3′, H290A F: 5′‐[…]gcg[…]‐3′, H290A R: 5′‐[…]‐3′, E306A F: 5′‐[…]gcg[…]‐3′, E306A R: 5′‐[…]‐3′, K324A F: 5′‐[…]gcg[…]‐3′, K324A R: 5′‐[…]‐3′, K328A F: 5′‐[…]gcg[…]‐3′, K328A R: 5′‐[…]‐3′, R340A F: 5′‐[…]gcg[…]‐3′, R340A R: 5′‐[…]‐3′, R344A F: 5′‐[…]gcg[…]‐3′, R344A R: 5′‐[…]‐3′, R350A F: 5′‐[…]gcg[…]‐3′, R350A R: 5′‐[…]‐3′, D372A F: 5′‐[…]gcg[…]‐3′, D372A R: 5′‐[…]‐3′, R373A F: 5′‐[…]gcg[…]‐3′, R373A R: 5′‐[…]‐3′, R399A F: 5′‐[…]gcg[…]‐3′, R399A R: 5′‐[…]‐3′, D423A F: 5′‐[…]gcg[…]‐3′, D423A R: 5′‐[…]‐3′, R435A F: 5′‐5′‐[…]gcg[…]‐3′, R435A R: 5′‐[…]‐3′, Q484A F: 5′‐[…]gcg[…]‐3′, Q484A R: 5′‐[…]‐3′, L495A F: 5′‐[…]gcg[…]‐3′, L495A R: 5′‐[…]‐3′, E514A F: 5′‐[…]gcg[…]‐3′, E514A R: 5′‐[…]‐3′, H517A F: 5′‐[…]gcg[…]‐3′, H517A R: 5′‐[…]‐3′, L540A F: 5′‐[…]gcg[…]‐3′, L540A R: 5′‐[…]‐3′, F544A F: 5′‐[…]gcg[…]‐3′, and F544A R: 5′‐[…]‐3′.

NOD1/2-RIP2 interaction = assay: GFP immunoprecipitation of NOD1/2 and Western blot for RIP2; type: cell-based, human; details: S1P 20 µM with digitonin, 1 h
Procedure: HeLa NOD1 or NOD2 cells were grown overnight and afterward treated with doxycycline overnight to induce NOD1 or NOD2 expression. Cells of one 10‐cm dish were lysed with 500 µl of lysis buffer (25 mM Tris–HCl, pH 7.5, 150 mM NaCl, 1 mM EDTA, 1% NP‐40, and 5% glycerol) supplemented with protease inhibitors (Roche, 05892791001) on ice for 20 min. Lysates were centrifuged at 16,000 × g at 4°C for 10 min, and supernatants were mixed with GFP‐Trap agarose (ChromoTek GmbH, gta‐20) overnight at 4°C. Afterward, agaroses were washed twice with PBS and boiled with sample buffer for SDS–PAGE. For lipid‐coated beads IP, lipid‐coated beads were incubated with supernatants for 2 h at room temperature and then washed with lysis buffer for three times and boiled with sample buffer for SDS–PAGE.

NOD2, sequence (Q9HC29 whole entry): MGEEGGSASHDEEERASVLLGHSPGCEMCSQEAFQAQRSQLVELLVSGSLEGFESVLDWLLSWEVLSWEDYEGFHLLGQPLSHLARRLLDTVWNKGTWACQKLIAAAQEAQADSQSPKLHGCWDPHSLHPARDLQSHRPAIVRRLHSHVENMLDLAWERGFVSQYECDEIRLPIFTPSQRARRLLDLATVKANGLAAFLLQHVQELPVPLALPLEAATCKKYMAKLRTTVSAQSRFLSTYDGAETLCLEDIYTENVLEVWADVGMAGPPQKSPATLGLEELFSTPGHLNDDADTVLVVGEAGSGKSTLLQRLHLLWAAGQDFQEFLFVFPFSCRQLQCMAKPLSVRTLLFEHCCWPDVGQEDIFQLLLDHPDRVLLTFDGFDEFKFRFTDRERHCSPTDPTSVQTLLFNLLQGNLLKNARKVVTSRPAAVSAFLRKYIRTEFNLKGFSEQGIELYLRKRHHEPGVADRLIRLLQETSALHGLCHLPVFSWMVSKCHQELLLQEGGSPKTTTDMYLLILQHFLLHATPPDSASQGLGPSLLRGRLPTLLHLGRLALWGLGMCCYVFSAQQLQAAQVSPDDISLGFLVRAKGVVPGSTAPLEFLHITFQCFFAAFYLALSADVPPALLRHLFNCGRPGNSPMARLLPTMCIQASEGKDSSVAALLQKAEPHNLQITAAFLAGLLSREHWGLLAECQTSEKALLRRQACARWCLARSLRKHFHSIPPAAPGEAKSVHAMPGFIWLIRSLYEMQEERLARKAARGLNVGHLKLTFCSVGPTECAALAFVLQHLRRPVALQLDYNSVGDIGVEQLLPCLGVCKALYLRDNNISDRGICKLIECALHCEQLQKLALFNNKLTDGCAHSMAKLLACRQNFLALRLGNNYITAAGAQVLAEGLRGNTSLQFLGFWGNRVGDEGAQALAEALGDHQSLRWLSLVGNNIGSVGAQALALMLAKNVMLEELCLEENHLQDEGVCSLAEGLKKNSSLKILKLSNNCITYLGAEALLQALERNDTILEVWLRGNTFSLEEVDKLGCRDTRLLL

- Kd (NOD2; Fig 6E, one representative experiment, read-out: Kd (NOD2/ligand)): 5.36 ± 1.91 µM
- Kd (NOD2; Fig EV5C, purified NOD2, read-out: Kd (NOD2/ligand)): 3.19 ± 1.97 µM
- Kd (NOD2; Kd value of S1P interacting with NOD2, as stated in text): ~5 µM
- Kd (NOD2; Kd(NOD2: S1P), Fig 7D, S1P alone): 2.4 ± 0.38 µM
- Kd (NOD1 H517A; Kd value of NOD1 H517A with S1P): ~15 µM
- Kd (NOD1 H517A; Kd(NOD1 H517A: S1P), Fig 7E): 13.7 ± 6.1 µM
SMILES: CCCCCCCCCCCCC/C=C/[C@@H](O)[C@@H](N)COP(=O)(O)O [S1P, sphingosine‐1‐phosphate]
- Interaction between NOD1/2 and RIP2 (NOD1/2-RIP2 interaction): stimulated the interaction between NOD1/2 and RIP2
